System: experimentally-infarcted rats
Assay: Infarct scar area and transmurality after coronary occlusion and reperfusion in rats
Type: in vivo, Sprague Dawley rats
Conditions: for Transmurality, Treated: infarct scar area divided by infarct area; for Transmurality, Treated / Infarct Scar Area, Treated: mean ± SEM, 7 rats; for Infarct Scar Area, Treated: left ventricle
Procedure: The experimental protocol for induction of cardiac infarction by coronary occlusion and reperfusion in rats was carried out as described by Oh et al. (10). Briefly, each rat was anaesthetized with 7% w/v chloral hydrate (0.4 g/kg, i.p.). Each anaesthetised animal was intubated and ventilated with a rodent ventilator. Under a dissecting microscope, a left thoracotomy was performed in the fourth intercostal space, and the pericardium open. The left coronary artery was encircled with a curved needle and a silk suture. The left coronary artery was ligated for 45 minutes, followed by reperfusion. In sham-operated animals, the left coronary artery was not ligated. The chest was closed in layers and the pneumothorax evacuated.
Following the surgery, each animal was placed in a cage. The animals had access to water and rat chow ad libitum. The animals were randomly divided into the control group and treatment group. Each group consisted of 7 animals. The treatment group was orally administered 381 nmoles/kg/day of des-Asp-angiotensin I (dissolved in 1 ml water) for 14 days. The control group was similarly administered an equivalent volume of water. The experiment was repeated with the following doses of des-Asp-angiotensin I: 762, 1524, and […] nmoles/kg/day.
On the fourteenth day following surgery, animals were anaesthetised as before. Rats were ventilated as before and the thorax was opened. A polyethylene catheter (PE 200) was introduced into the left ventricle (via the left atrial appendage) and another into the descending aorta retrogradely. The heart was arrested with 2 ml injection of saturated KCl solution into the right atrium. After aortic perfusion with heparinized saline (10,000 units/L) for 3 minutes to wash out the blood, the myocardium was perfused retrogradely from the aorta with 4% phosphate-buffered paraformaldehyde at a constant pressure of 60 mm Hg for 20 minutes. The right atrium and pulmonary artery were opened to decompress the right ventricle during fixation. The left ventricle intracavity pressure was maintained at 10 mm Hg by use of the cathether introduced via the left atrial appendage.
After hardening, the heart was excised and postfixed in 4% paraformaldehyde for 24 hours. Following postfixing, the atria and adhensions were carefully dissected away and the right and left ventricles were separated, the interventricular septum being included with the left ventricle. The left ventricle was processed for paraffin embedment. Transverse serial sections of 40 μm thick were cut from the apex of the ventricle to its base. Every section at 1 mm intervals was mounted and stained with Milligan's trichrome. The infracted tissue (infarct scar) was stained blue. Two sections, taken at 5 and 6 mm, respectively, from the apex of each ventricle were used for morphometric determination of the infarct scar area and transmurality. The morphometry system consisted of a BX40 light microscope (Olympus, Japan) fitted with a KYF55B colour video camera (JVC, Japan) and a Pentium 166 MHz/MKX microcomputer (Datamini, Singapore) installed with an image Pro Plus 3.0 System (Media Cybernetics, USA) for Windows 95™. The infarct scar area, infarct area (which measured the scar and the surrounding surviving ventricular tissue) were determined in mm2. Transmurality is equal to the infarct scar area divided by infarct area.
The results of the study are summarized in Table 2 Data were expressed as mean±SEM. Significant differences were determined by one way ANOVA and post hoc Newman Kleuf test. The accepted level of significance was p<0.05. […] The effect was dose dependent and significant anti-infarction action was brought about by an oral dose of 1524 nmoles/kg/day.

[1] = 381 nmole/kg/day orally for 14 days
[2] = 762 nmole/kg/day orally for 14 days
[3] = 1524 nmole/kg/day orally for 14 days, * p < 0.05 vs Control
[4] = 3096 nmole/kg/day orally for 14 days, * p < 0.05 vs Control

Question: Which results are given for “Des-Aspartate angiotensin I [des-Asp-angiotensin I]”?
Answer: Transmurality, Treated [1]: 32.93 ± 1.94%; Infarct Scar Area, Treated [1]: 5.85 ± 0.25 mm^2; Transmurality, Treated [2]: 33.70 ± 3.40%; Infarct Scar Area, Treated [2]: 5.60 ± 0.30 mm^2; Transmurality, Treated [3]: 24.67 ± 2.37* %; Infarct Scar Area, Treated [3]: 5.11 ± 0.54* mm^2; Transmurality, Treated [4]: 31.26 ± 1.53* %; Infarct Scar Area, Treated [4]: 5.86 ± 0.20* mm^2; attenuating the infarct size area and transmurality (experimentally-induced myocardial infarcted rats, oral, 14 days): effective agent; oral dose that brought about significant anti-infarction action (oral, 14 days, p<0.05, one way ANOVA): 1524 nmol/kg/day
